# Measured values as given in ChEMBL document CHEMBL1201862, “PubChem BioAssay data set” (2004).
# Calls of active or inactive are those of the source.
# Columns and labels:
# HEK293 = experiment: HEK293T cell cytotoxicity, dose response, cytotoxicity control, ATP luminescence, cherry-pick samples (AID 687005); type: functional, cell-based; settings: Homo sapiens;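 note: cells exposed to compound for 48 hours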
# [1] = HEK293 Cytotoxicity Assay Measured in Cell-Based System Using Plate Reader - 7071-01_Inhibitor_Dose_CherryPick_Activity_Set2.; type: functional
# [2] = A375 melanoma cell viability loss, dose response, counter-screen for MITF inhibitor project, CellTiter-Glo luminescence, dry powder, set 4 (AID 624364); type: functional, cell-based; settings: A-375;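 note: A375 melanoma cells are MITF independent so this is a counter screen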
# [3] = A375 melanoma cell cytotoxicity, dose response, counter-screen for MITF inhibitor project, CellTiter-Glo luminescence, dry powder, set 2 (AID 624489); type: functional, cell-based; settings: A-375;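 note: actives are compounds lowering A375 viability meaning general cytotoxicity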
# [4] = target: T1, Microphthalmia-associated transcription factor (Homo sapiens, UniProt O75030); experiment: TRPM1 promoter luciferase signal decrease, dose response, MITF inhibitor project, cell-based, SK-MEL-5, cherry-picked, set 3 (AID 493073); type: functional
# T1 sequence (O75030 whole entry): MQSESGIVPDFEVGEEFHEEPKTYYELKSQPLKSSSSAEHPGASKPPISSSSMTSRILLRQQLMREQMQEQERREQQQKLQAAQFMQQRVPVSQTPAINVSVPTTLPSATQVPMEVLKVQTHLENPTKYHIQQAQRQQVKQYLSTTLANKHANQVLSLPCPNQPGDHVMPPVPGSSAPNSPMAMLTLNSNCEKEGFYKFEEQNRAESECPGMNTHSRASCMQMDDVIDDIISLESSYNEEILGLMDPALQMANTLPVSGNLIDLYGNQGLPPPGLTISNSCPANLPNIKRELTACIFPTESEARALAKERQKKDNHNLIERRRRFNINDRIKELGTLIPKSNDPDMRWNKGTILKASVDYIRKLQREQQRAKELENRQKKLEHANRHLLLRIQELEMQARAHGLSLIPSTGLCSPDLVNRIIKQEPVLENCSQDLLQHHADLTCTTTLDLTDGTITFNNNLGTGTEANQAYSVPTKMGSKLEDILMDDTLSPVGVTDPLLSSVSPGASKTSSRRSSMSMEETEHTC
# [5] = target: T2, Rac GTPase-activating protein 1 (Homo sapiens, UniProt Q9H0H5); experiment: MgcRacGAP GTPase-activating activity inhibitors, confirmation, biochemical, ADP Hunter fluorescence, primary and confirmatory (AID 624330); type: functional
# T2 sequence (Q9H0H5 whole entry): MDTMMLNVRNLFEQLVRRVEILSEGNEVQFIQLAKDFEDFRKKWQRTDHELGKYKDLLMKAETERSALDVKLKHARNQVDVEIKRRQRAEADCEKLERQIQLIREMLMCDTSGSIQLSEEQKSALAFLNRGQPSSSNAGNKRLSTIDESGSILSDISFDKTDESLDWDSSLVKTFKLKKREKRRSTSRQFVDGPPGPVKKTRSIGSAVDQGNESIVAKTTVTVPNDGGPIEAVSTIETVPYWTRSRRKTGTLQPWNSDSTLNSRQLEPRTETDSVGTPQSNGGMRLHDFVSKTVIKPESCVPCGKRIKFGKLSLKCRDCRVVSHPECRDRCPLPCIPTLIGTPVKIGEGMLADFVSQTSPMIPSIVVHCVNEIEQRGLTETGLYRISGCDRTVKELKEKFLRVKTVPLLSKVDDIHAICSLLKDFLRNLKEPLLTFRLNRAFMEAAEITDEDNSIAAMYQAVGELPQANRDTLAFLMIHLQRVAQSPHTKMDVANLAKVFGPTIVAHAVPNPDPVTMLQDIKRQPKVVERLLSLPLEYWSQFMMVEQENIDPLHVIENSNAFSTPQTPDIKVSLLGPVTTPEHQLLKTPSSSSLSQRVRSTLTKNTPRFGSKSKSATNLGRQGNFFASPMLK
# Paired box protein Pax-8 = Paired box protein Pax-8 (Homo sapiens, UniProt Q06710); experiment: inhibitors of PAX8-driven TPO luciferase reporter, dose response, RMG-I cells, cherry-pick (AID 687027); type: functional, cell-based;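 note: luciferase reporter driven by Pax8 target thyroperoxidase promoter measured by SteadyGlo luminescence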
# [6] = A549 cell cytotoxicity, dose response, cytotoxicity control, plate reader, cherry-pick, antagonist series (AID 743412); type: functional, cell-based
# [7] = HepG2 cell cytotoxicity, dose response, cytotoxicity control, plate reader, cherry-pick, antagonist series (AID 743416); type: functional, cell-based
# [8] = LGR2 antagonists, dose response, cell-based, HEK293, CRE-luciferase reporter, cherry pick, set 2 (AID 743343); type: functional;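 note: transfected cells were stimulated with diluted bursicon conditioned medium after compound addition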
# [9] = MC4R antagonists, dose response, counter-screen for LGR2 antagonist project, cell-based, plate reader, cherry pick (AID 743444); type: functional;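 note: transfected HEK 293 cells stimulated with alpha-MSH peptide; potency of inhibitors of the alpha-MSH evoked signal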
# [10] = target: T3, Oxysterols receptor LXR-beta (Homo sapiens, UniProt P55055); type: functional, cell-based;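 note: Cell-based luminescence dose-response assay of agonist activity at LXR, run as a confirmatory counterscreen to a daf-12 agonist screen; HEK293 cells with Gal4-LXR fusion and GAL4-driven luciferase reporter; agonist potency from rising luciferase signal of a Gal4-LXR reporter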
# T3 sequence (P55055 whole entry): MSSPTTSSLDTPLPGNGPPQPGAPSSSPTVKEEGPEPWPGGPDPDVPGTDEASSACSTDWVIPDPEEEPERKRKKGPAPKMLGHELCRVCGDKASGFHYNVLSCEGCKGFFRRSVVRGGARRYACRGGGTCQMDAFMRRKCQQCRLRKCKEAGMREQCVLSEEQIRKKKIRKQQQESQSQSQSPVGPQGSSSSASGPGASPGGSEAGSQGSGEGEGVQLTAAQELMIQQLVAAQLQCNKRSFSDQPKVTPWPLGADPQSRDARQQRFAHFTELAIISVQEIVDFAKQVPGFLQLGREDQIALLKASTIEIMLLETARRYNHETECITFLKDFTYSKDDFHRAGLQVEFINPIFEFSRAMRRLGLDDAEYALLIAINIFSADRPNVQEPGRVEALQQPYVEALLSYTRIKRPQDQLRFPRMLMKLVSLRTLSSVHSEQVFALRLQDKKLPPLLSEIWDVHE
# [11] = HEp-2 cell cytotoxicity, dose response, cytotoxicity control for RSV inhibitor project, HTS (AID 2410); type: functional; settings: human respiratory syncytial virus
# [12] = inhibitors of firefly luciferase expression or activity, dose response, H4 neuroglioma cells, luminescence (AID 1990); type: functional, cell-based
# [13] = Luminescence Cell-Based Dose Response HTS to Identify Inhibitors of 5'UTR Stem-Loop Driven Prion Protein mRNA Translation in H4 Neuroglioblastoma Cells. [Related pubchem assays: 1827 (Project Summary), 1813 (Primary HTS)]; type: functional
# [14] = inhibitors of SNCA 5'UTR-driven reporter translation, confirmation, H4 neuroglioma cells, luminescence (AID 1988); type: functional, cell-based
# Vero [15] = experiment: cells; type: functional, cell-based; settings: Chlorocebus sabaeus
# Vero [16] = experiment: cells; type: functional; settings: Chlorocebus sabaeus
# [17] = target: Disintegrin and metalloproteinase domain-containing protein 17 (Homo sapiens, UniProt P78536); experiment: exosite inhibitors of ADAM17, dose response, biochemical (AID 743260)
# [18] = ADAM10 protease inhibitors, dose response, selectivity assay for ADAM17 exosite inhibitor project, biochemical, FRET peptide substrate, recombinant human ADAM10 (AID 743259);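 note: ADAM10 enzyme cleaving a FRET peptide substrate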
# [19] = target: Metabotropic glutamate receptor 7 (Homo sapiens, UniProt Q14831); experiment: mGlu7 positive allosteric modulators, dose response, cell-based, calcium mobilization, Galpha15 (AID 743384); type: functional
# Metabotropic glutamate receptor 7, sequence (Q14831 whole entry): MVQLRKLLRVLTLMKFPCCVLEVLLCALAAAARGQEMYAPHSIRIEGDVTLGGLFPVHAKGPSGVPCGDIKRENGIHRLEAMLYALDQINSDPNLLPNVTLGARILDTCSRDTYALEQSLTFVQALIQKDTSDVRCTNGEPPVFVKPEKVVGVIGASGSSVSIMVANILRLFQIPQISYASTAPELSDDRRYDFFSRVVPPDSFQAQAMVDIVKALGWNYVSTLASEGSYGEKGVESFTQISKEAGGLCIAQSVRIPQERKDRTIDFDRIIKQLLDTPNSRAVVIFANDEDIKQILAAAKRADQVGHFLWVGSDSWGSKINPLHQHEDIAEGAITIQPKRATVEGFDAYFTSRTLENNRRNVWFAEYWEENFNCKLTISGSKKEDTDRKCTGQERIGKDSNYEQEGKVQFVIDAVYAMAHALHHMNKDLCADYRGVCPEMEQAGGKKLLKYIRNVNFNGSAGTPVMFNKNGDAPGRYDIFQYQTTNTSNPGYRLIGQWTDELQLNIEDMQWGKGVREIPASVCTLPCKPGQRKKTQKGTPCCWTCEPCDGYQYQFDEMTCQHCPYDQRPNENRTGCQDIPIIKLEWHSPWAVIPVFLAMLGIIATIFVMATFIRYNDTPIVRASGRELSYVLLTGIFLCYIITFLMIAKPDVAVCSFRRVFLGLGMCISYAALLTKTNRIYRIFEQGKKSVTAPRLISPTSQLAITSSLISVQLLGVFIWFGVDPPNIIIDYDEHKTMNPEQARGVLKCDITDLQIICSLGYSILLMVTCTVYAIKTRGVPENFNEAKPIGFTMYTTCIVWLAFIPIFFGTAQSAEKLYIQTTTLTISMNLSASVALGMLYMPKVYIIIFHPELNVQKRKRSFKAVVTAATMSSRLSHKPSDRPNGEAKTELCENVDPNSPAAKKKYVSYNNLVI
# Paired box protein Pax-8, sequence (Q06710 whole entry): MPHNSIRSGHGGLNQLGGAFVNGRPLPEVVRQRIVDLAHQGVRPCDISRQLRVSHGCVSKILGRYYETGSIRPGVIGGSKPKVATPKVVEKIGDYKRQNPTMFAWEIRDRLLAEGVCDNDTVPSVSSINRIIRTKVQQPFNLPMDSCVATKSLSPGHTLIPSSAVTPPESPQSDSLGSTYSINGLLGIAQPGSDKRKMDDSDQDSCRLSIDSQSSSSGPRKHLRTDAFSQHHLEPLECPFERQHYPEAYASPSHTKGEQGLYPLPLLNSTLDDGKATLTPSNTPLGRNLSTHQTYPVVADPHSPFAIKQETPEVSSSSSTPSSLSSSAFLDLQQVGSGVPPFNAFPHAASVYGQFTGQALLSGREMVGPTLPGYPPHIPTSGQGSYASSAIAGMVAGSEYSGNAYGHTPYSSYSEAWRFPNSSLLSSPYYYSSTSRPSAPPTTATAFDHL
# Disintegrin and metalloproteinase domain-containing protein 17, sequence (P78536 whole entry, the tested form may be a part): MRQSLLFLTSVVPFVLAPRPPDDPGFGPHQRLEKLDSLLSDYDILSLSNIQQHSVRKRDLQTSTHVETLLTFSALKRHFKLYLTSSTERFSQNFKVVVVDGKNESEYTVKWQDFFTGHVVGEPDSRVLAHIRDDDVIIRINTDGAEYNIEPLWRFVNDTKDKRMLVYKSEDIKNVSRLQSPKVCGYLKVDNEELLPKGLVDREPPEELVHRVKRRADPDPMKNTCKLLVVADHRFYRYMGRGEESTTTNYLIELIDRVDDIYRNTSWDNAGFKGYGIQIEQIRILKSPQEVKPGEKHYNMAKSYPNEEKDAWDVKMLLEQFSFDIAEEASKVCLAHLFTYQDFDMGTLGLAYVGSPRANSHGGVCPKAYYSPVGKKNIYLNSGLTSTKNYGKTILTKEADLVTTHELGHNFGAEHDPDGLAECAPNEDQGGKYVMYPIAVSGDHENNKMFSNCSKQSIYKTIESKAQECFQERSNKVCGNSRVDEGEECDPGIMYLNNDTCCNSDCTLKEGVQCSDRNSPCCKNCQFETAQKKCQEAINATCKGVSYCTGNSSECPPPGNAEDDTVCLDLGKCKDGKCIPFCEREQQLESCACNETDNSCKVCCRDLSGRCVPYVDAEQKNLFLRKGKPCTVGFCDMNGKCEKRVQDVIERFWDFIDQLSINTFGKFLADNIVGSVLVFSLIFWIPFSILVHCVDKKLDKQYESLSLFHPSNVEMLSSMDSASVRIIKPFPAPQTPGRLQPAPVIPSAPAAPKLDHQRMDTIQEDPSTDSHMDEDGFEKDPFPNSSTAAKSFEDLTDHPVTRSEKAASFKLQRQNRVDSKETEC
smiles,measurement,setting,value
C[C@H](CO)N1C[C@H](C)[C@@H](CN(C)Cc2ccc(Oc3ccccc3)cc2)Oc2ccc(NC(=O)Nc3ccc4c(c3)OCO4)cc2C1=O,AC50,HEK293,26.4 µM (active)
same,AC50,[1],26.4 µM (active)
CC(NC(=O)COc1ccccc1C(C)(C)C)c1ccccc1 (configuration not stated),AC50,HEK293,51.4 µM (active)
same,AC50,[1],51.4 µM (active)
O=C(NC1=C(c2ccc(OC(F)(F)F)cc2)C(=O)c2ccccc2C1=O)c1ccco1,AC50,[2],32.2 µM (active)
same,AC50,[3],21.1 µM (active)
O=C(O)c1cccc(N/N=C/c2cccs2)c1,AC50,[4],1.51 µM (active)
same,IC50,[5],75.3 µM (active)
same,AC50,Paired box protein Pax-8,6.14 µM (active)
same,AC50,[6],> 52 µM (inactive)
same,AC50,[7],> 52 µM (inactive)
same,AC50,[8],1.87 µM (active)
same,AC50,[9],2.41 µM (active)
same,EC50,[10],> 67.5 µM (inactive)
same,EC50,cells,> 67.5 µM (inactive)
COc1cc(/C=N/NC(=O)c2cc(-c3ccccc3OC(C)C)nc3ccccc23)ccc1O,CC50,[11],29.6 µM (active)
same,EC50,[12],> 120 µM (not active)
same,EC50,[13],> 120 µM (not active)
same,EC50,[14],13.7 µM (active)
same,IC50,Vero [15],> 25 µM (active)
same,CC50,Vero [16],> 25 µM (active)
same,IC50,[17],> 69.5 µM (inactive)
same,IC50,[18],> 69.5 µM (inactive)
CC(=O)Nc1ccc(SCC(=O)c2cc(C)n(CC3COc4ccccc4O3)c2C)cc1 (configuration not stated),EC50,[19],2.6 µM (active)
CCOc1ccc(-n2c(C)cc(C(=O)CSCc3ccc(OC)cc3)c2C)cc1,EC50,[19],10 µM (active)
CC(=O)NC1=C(c2ccccc2)C(=O)c2ccccc2C1=O,AC50,[2],15.6 µM (active)
same,AC50,[3],8.87 µM (active)
